Measured values: ChEMBL document CHEMBL3217571, “Structureactivity relationships of novel iodinated quinoline-2-carboxamides for targeting the translocator protein” (Medchemcomm, 2013)

test system: not listed separately; test: Permeability of the compound using immobilized artificial membrane; type: physicochemical; conditions: not given

Structure (SMILES)	Pm
CCC(C)N(C)C(=O)c1cc2ccccc2c(-c2ccccc2Cl)n1 (stereo not drawn) [PK-11195]	0.64
CCN(CC)C(=O)c1cc(-c2ccccc2I)c2ccccc2n1	0.67
O=C(c1nc2ccccc2c(-c2ccccc2)c1CI)N1CCOCC1	0.54
O=C(c1cc(-c2ccccc2I)c2ccccc2n1)N1CCOCC1	0.26
O=C(c1cc(-c2ccccc2)c2cccc(I)c2n1)N1CCOCC1	0.41
O=C(c1cc(-c2ccccc2)c2cc(I)ccc2n1)N1CCOCC1	0.55
O=C(c1cc(-c2ccccc2)c2cc(F)ccc2n1)N1CCOCC1	0.25
CN(C)C(=O)c1nc2ccccc2c(-c2ccccc2)c1CI	0.55

biological target: Translocator protein (Rattus norvegicus, UniProt P16257); test: Displacement of [3H]-PK11195 from TSPO in Sprague-Dawley rat brain homogenates after 90 mins by liquid scintillation counting analysis; type: tissue-based; conditions: not given
Sequence (P16257 whole entry, looked up): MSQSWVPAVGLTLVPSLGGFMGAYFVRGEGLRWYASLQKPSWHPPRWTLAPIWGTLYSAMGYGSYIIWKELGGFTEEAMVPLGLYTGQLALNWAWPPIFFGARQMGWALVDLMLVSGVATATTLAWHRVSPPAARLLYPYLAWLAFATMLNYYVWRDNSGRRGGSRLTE

Structure (SMILES)	Ki [nM]
CCN(CC)C(=O)c1cc(-c2ccccc2I)c2ccccc2n1	5.01
O=C(c1nc2ccccc2c(-c2ccccc2)c1CI)N1CCOCC1	27.8
O=C(c1cc(-c2ccccc2I)c2ccccc2n1)N1CCOCC1	929
O=C(c1cc(-c2ccccc2)c2cccc(I)c2n1)N1CCOCC1	76100
O=C(c1cc(-c2ccccc2)c2cc(I)ccc2n1)N1CCOCC1	29900
O=C(c1cc(-c2ccccc2)c2cc(F)ccc2n1)N1CCOCC1	5740
CN(C)C(=O)c1nc2ccccc2c(-c2ccccc2)c1CI	1340

biological target: serum albumin (Homo sapiens, UniProt P02768); test: Binding affinity to human serum albumin by HPLC analysis; type: ADME; conditions: read-out: PB (converted)
Sequence (P02768 whole entry): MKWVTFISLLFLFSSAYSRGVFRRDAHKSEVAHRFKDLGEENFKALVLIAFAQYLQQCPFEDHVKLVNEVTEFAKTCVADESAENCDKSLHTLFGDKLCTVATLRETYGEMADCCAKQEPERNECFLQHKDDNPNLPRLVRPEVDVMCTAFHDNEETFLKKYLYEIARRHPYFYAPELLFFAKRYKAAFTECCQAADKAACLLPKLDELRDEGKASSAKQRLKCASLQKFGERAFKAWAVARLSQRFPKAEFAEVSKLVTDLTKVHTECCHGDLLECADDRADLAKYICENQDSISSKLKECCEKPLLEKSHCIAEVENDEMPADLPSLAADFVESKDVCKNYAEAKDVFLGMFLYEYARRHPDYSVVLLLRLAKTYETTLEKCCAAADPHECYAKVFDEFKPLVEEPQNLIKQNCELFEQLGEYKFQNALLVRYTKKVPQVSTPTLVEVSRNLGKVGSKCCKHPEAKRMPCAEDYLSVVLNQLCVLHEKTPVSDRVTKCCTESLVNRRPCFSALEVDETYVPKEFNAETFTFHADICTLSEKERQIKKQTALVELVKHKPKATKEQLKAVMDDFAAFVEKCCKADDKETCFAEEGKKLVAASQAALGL

Structure (SMILES)	fraction unbound
CCC(C)N(C)C(=O)c1cc2ccccc2c(-c2ccccc2Cl)n1 (stereo not drawn) [PK-11195]	0.0772
CCN(CC)C(=O)c1cc(-c2ccccc2I)c2ccccc2n1	0.0591
O=C(c1nc2ccccc2c(-c2ccccc2)c1CI)N1CCOCC1	0.047
O=C(c1cc(-c2ccccc2I)c2ccccc2n1)N1CCOCC1	0.0876
O=C(c1cc(-c2ccccc2)c2cccc(I)c2n1)N1CCOCC1	0.0181
O=C(c1cc(-c2ccccc2)c2cc(I)ccc2n1)N1CCOCC1	0.0462
O=C(c1cc(-c2ccccc2)c2cc(F)ccc2n1)N1CCOCC1	0.122
CN(C)C(=O)c1nc2ccccc2c(-c2ccccc2)c1CI	0.0498
